Some test systems named below: HS 578T breast; SNB-19 CNS; BT-549 breast; MCF7 breast; RPMI-8226 leukemia; NCI-H23 lung; A498 renal; RXF 393 renal; SF-268 CNS; HOP-92 NSCLC.
What all share (test): NCI tumour cell line growth inhibition, 48 h

The structures appear in SMILES notation.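 Cultured in 96-well plates, cells were exposed to test compound for 48 hours across five concentrations. GI50: concentration for 50% inhibition of growth. TGI: total growth inhibition.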

As for `c1ccc(CN2COc3c(ccc4c3OCN(Cc3ccccc3)C4)C2)cc1`, the GI50 is 1.91 µM in the assay with HS 578T breast; 1 µM in the assay on SNB-19 CNS; 2.92 µM in the assay on BT-549 breast; 0.515 µM with MCF7 breast; 1.41 µM in the assay with RPMI-8226 leukemia; 3.68 µM with NCI-H23 lung. For the same compound, the GI50 in the assay with A498 renal is 1.19 µM; with RXF 393 renal, 0.41 µM; in the assay with SF-268 CNS, 0.605 µM; with HOP-92 NSCLC, 1.18 µM. Also, the TGI with HS 578T breast, in the assay with SNB-19 CNS, in the assay on BT-549 breast, in the assay with MCF7 breast, in the assay on RPMI-8226 leukemia and in the assay on NCI-H23 lung was greater than 100 µM in each case. In addition, the TGI was greater than 30.3 µM in the assay on A498 renal, greater than 100 µM in the assay on RXF 393 renal, greater than 35.6 µM in the assay on SF-268 CNS and greater than 100 µM with HOP-92 NSCLC.
As for `C[As](C)SCC(COC(=O)C(Cl)c1ccccc1)OC(=O)C(Cl)c1ccccc1` (centres undefined), the GI50 in the assay on HS 578T breast is 3.4 µM; in the assay on SNB-19 CNS, 14.5 µM; with BT-549 breast, 2.68 µM; with MCF7 breast, 0.46 µM; in the assay on RPMI-8226 leukemia it was 0.299 µM; with NCI-H23 lung it was 0.719 µM. The GI50 in the assay with A498 renal was 4.34 µM; in the assay with RXF 393 renal it was 0.641 µM; in the assay with SF-268 CNS, 3.3 µM; in the assay with HOP-92 NSCLC, 0.381 µM. Also, the TGI was found to be 46.5 µM in the assay on HS 578T breast; 50 µM in the assay with SNB-19 CNS; 14.3 µM in the assay on BT-549 breast; 12.9 µM in the assay with MCF7 breast; 1.37 µM in the assay on RPMI-8226 leukemia; 14.6 µM with NCI-H23 lung. In addition, the TGI is 17.2 µM in the assay with A498 renal, 15 µM in the assay on RXF 393 renal, 14.9 µM in the assay on SF-268 CNS and 3.9 µM with HOP-92 NSCLC.
With `O=C(c1ccccc1)C(CN1CCCCC1)c1ccccc1` (centres undefined), the GI50 in the assay on HS 578T breast is 4.49 µM; with SNB-19 CNS it was 9.6 µM; with BT-549 breast it was 1.6 µM; in the assay on MCF7 breast, 2.81 µM; with RPMI-8226 leukemia, 0.539 µM; in the assay on NCI-H23 lung it was 1.65 µM. The GI50 is 9.33 µM with A498 renal, 1.42 µM in the assay on RXF 393 renal, 3.98 µM in the assay with SF-268 CNS and 1.16 µM in the assay with HOP-92 NSCLC. Moreover, the TGI in the assay with HS 578T breast came out at 33.2 µM; with SNB-19 CNS, 21.5 µM; in the assay with BT-549 breast, 3.19 µM; in the assay with MCF7 breast, 37.8 µM; in the assay on RPMI-8226 leukemia, 2.88 µM; in the assay on NCI-H23 lung it was 3.78 µM. Moreover, the TGI with A498 renal turned out to be 22 µM; in the assay on RXF 393 renal, 2.74 µM; in the assay on SF-268 CNS it was 16.1 µM; in the assay on HOP-92 NSCLC it was 3.88 µM.
Turning to `CC1CCCC(C(O)CC2CC(=O)NC(=O)C2)C1O` (centres undefined), the TGI in the assay on HS 578T breast, with SNB-19 CNS, with BT-549 breast, in the assay with MCF7 breast, in the assay on RPMI-8226 leukemia and in the assay with NCI-H23 lung was greater than 100 µM each time. Besides, the TGI in the assay with A498 renal, in the assay on RXF 393 renal, in the assay on SF-268 CNS and in the assay on HOP-92 NSCLC was greater than 100 µM each time.
As to `Nc1nnnn1CCO`, the TGI in the assay on HS 578T breast, in the assay with SNB-19 CNS, with BT-549 breast, with MCF7 breast, in the assay on RPMI-8226 leukemia and with NCI-H23 lung was greater than 100 µM in each case. Further, the TGI in the assay with A498 renal, in the assay on RXF 393 renal, with SF-268 CNS and in the assay with HOP-92 NSCLC was greater than 100 µM in each case.
In the case of `COc1cc(NCCCN=C(N)NC(N)=NC(C)C)c2ncccc2c1`, the GI50 is 14 µM in the assay with HS 578T breast; 11 µM in the assay with SNB-19 CNS; 10 µM in the assay on BT-549 breast; 6.55 µM with RPMI-8226 leukemia; 3.02 µM with NCI-H23 lung; 36.6 µM in the assay with A498 renal. For the same compound, the values for the GI50 in the assay on RXF 393 renal, with SF-268 CNS and in the assay with HOP-92 NSCLC were 22.8 µM, 4.98 µM and 2.54 µM, respectively. The TGI in the assay with HS 578T breast amounted to 46.1 µM; in the assay with SNB-19 CNS it was 64.4 µM; with BT-549 breast it was 22.8 µM; with MCF7 breast, 0.0718 µM; in the assay with RPMI-8226 leukemia, 26.2 µM; in the assay with NCI-H23 lung it was 29.6 µM. Also, the TGI was greater than 88.8 µM with A498 renal, greater than 91.2 µM in the assay on RXF 393 renal, greater than 57.5 µM with SF-268 CNS and 26.5 µM in the assay with HOP-92 NSCLC.
On to `C/C1=C/C(=O)O[C@@H]2C[C@@H](CC[C@H](C)/C=C\C=C\CC1)O[C@@](O)([C@@H]1CSC(=O)N1)C2`, for which the TGI is 0.512 µM in the assay with HS 578T breast; greater than 7.89 µM in the assay on SNB-19 CNS; greater than 2.59 µM in the assay on BT-549 breast; greater than 10 µM in the assay on MCF7 breast; greater than 10 µM in the assay with RPMI-8226 leukemia; greater than 10 µM in the assay on NCI-H23 lung. Also, the TGI with A498 renal came to 0.358 µM; in the assay on RXF 393 renal it was 0.752 µM; in the assay with SF-268 CNS it was 1.38 µM; in the assay on HOP-92 NSCLC it was 0.356 µM.
On to `CC(C)O/N=C/c1cc(NC(=S)OC(C)C)ccc1Cl`, for which the TGI in the assay on HS 578T breast is greater than 79.2 µM; in the assay on SNB-19 CNS, greater than 72.4 µM; in the assay with BT-549 breast, greater than 100 µM; with MCF7 breast, greater than 68.8 µM; in the assay with RPMI-8226 leukemia, 54.2 µM; in the assay with NCI-H23 lung, greater than 100 µM. Also, the TGI was greater than 76.5 µM with A498 renal, 52.9 µM in the assay with RXF 393 renal, greater than 69.8 µM with SF-268 CNS and 99.8 µM with HOP-92 NSCLC.
With `Oc1ccc(-c2nc3ccccc3s2)cc1CN(Cc1ccccn1)Cc1ccccn1`, the GI50 in the assay with HS 578T breast is 4.66 µM; in the assay with SNB-19 CNS it was 1.51 µM; with BT-549 breast, 1.83 µM; in the assay with MCF7 breast it was 1.19 µM; with RPMI-8226 leukemia, 2.08 µM; with NCI-H23 lung, 2.64 µM. In addition, the GI50 with A498 renal was 2.66 µM; with RXF 393 renal, 1.64 µM; in the assay on SF-268 CNS it was 1 µM; with HOP-92 NSCLC it was 4.19 µM. The TGI in the assay on HS 578T breast is 39.4 µM; with SNB-19 CNS, 20.8 µM; in the assay with BT-549 breast, 15.6 µM; in the assay with MCF7 breast it was 15.2 µM; with RPMI-8226 leukemia, 16.6 µM; in the assay on NCI-H23 lung, 24.3 µM. The TGI with A498 renal came to 18.6 µM; with RXF 393 renal it was 9.96 µM; in the assay with SF-268 CNS, 16 µM; in the assay on HOP-92 NSCLC it was 36.7 µM.

The record behind these values is PubChem BioAssay (NCI).
